# According to patent US5565568A, “2-acylaminopropanamides as tachykinin receptor antagonists” (Eli Lilly and Company, priority 1995, dated 1996):
# Counter-ions that a name gives are not always drawn.
# Experiments:
# NK-1 receptor = molecular target: T1, NK-1 receptor (Homo sapiens, UniProt P25103); experiment: NK-1 Receptor Binding Assay (125I-labeled substance P, IM9 cells); conditions: inhibition of 125I-substance P binding to IM9 cells, 45 minutes at 4° C.; certain values may be average of more than one experiment
# T1 construct: In this assay an aliquot of IM9 cells; endogenous in cells; host or cells: IM9 cells
# Method: (§1) The biological activity of the compounds of the present invention is evaluated employing an initial screening assay which rapidly and accurately measured the binding of the tested compound to known NK-1 and NK-2 receptor sites. Assays useful for evaluating tachykinin receptor antagonists are well known in the art. See, e.g., J. Jukic, et al., Life Sciences, 49:1463-1469 (1991); N. Kucharczyk, et al., Journal of Medicinal Chemistry, 36:1654-1661 (1993); N. Rouissi, et al., Biochemical and Biophysical Research Communications, 176:894-901 (1991).
# NK-1 Receptor Binding Assay
# Radioreceptor binding assays are performed using a derivative of a previously published protocol. D. G. Payan, et al., Journal of Immunology, 133:3260-3265 (1984). In this assay an aliquot of IM9 cells (1×10^6 cells/tube in […] medium supplemented with 10% fetal calf serum) is incubated with 20 pM ^125 I-labeled substance P in the presence of increasing competitor concentrations for 45 minutes at 4° C.
# The IM9 cell line is a well-characterized cell line which is readily available to the public. See, e.g., Annals of the New York Academy of Science, 190: 221-234 (1972); Nature (London), 251:443-444 (1974); Proceedings of the National Academy of Sciences (USA), 71:84-88 (1974). These cells are routinely cultured in RPMI 1640 supplemented with 50 μg/ml gentamicin sulfate and 10% fetal calf serum.
# The reaction is terminated by filtration through a glass fiber filter harvesting system using filters previously soaked for 20 minutes in 0.1% polyethylenimine. Specific binding of labeled substance P is determined in the presence of 20 nM unlabeled ligand.
# (§2) Column 1 provides the example number of the test antagonist compound as detailed supra. The next columns define the concentration of the test compound (in nanomolar quantities) which inhibits fifty percent of the binding of the appropriate neurokinin, as defined in the column heading. Certain values may represent the average of more than one experiment.
# human NK-2 receptor = molecular target: T2, human NK-2 receptor (Homo sapiens, UniProt P21452); experiment: NK-2 Receptor Binding Assay ([125I]iodohistidyl-neurokinin A, CHO-hNK-2R membranes); conditions: inhibition of [125I]iodohistidyl-neurokinin A binding, 1 hour at room temperature, certain values may be average of more than one experiment
# T2 construct: expressed in transfected cells; host or cells: CHO-hNK-2R cells (membranes)
# T2 sequence (P21452 1-398): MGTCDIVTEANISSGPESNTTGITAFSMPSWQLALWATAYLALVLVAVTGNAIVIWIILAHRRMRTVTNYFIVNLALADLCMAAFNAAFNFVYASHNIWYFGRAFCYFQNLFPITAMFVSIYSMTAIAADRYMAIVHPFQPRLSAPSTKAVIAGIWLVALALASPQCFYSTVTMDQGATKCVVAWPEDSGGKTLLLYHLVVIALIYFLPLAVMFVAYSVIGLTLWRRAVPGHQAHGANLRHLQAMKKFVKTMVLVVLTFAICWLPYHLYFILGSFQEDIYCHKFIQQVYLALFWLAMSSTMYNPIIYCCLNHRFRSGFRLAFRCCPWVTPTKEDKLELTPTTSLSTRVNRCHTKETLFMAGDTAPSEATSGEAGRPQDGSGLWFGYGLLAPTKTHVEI
# Method: as §1
# NK-2 Receptor Binding Assay
# The CHO-hNK-2R cells, a CHO-derived cell line transformed with the human NK-2 receptor, expressing about 400,000 such receptors per cell, are grown in 75 cm^2 flasks or roller bottles in minimal essential medium (alpha modification) with 10% fetal bovine serum. The gene sequence of the human NK-2 receptor is given in N. P. Gerard, et al., Journal of Biological Chemistry, 265:20455-20462 (1990).
# For preparation of membranes, 30 confluent roller bottle cultures are dissociated by washing each roller bottle with 10 ml of Dulbecco's phosphate buffered saline (PBS) without calcium and magnesium, followed by addition of 10 ml of enzyme-free cell dissociation solution (PBS-based, from Specialty Media, Inc.). After an additional 15 minutes, the dissociated cells are pooled and centrifuged at 1,000 RPM for 10 minutes in a clinical centrifuge. Membranes are prepared by homogenization of the cell pellets in 300 ml 50 mM Tris buffer, pH 7.4 with a Tekmar® homogenizer for 10-15 seconds, followed by centrifugation at 12,000 RPM (20,000 x g) for 30 minutes using a Beckman JA-14® rotor. The pellets are washed once using the above procedure. and the final pellets are resuspended in 100-120 ml 50 mM Tris buffer, pH 7.4, and 4 ml aliquots stored frozen at -70° C. The protein concentration of this preparation is 2 mg/ml.
# For the receptor binding assay, one 4-ml aliquot of the CHO-hNK-2R membrane preparation is suspended in 40 ml of assay buffer containing 50 mM Tris, pH 7.4, 3 mM manganese chloride, 0.02% bovine serum albumin (BSA) and 4 μg/ml chymostatin. A 200 μl volume of the homogenate (40 μg protein) is used per sample. The radioactive ligand is [^125 I]iodohistidyl-neurokinin A (New England Nuclear, NEX-252), 2200 Ci/mmol. The ligand is prepared in assay buffer at 20 nCi per 100 μl; the final concentration in the assay is 20 pM. Non-specific binding is determined using 1 μM eledoisin. Ten concentrations of eledoisin from 0.1 to 1000 nM are used for a standard concentration-response curve.
# All samples and standards are added to the incubation in 10 μl dimethylsulfoxide (DMSO) for screening (single dose) or in 5 μl DMSO for IC50 determinations. The order of additions for incubation is 190 or 195 μl assay buffer, 200 μl homogenate, 10 or 5 μl sample in DMSO, 100 μl radioactive ligand. The samples are incubated 1 hour at room temperature and then filtered on a cell harvester through filters which had been presoaked for two hours in 50 mM Tris buffer, pH 7.7, containing 0.5% BSA. The filter is washed 3 times with approximately 3 ml of cold 50 mM Tris buffer, pH 7.7. The filter circles are then punched into 12×75 mm polystyrene tubes and counted in a gamma counter.
# as §2
# benzodiazepine receptor = conditions: Biochemical Pharmacology, 30:3016-3019 (1981); cited from earlier work
# rat alpha-fetoprotein = conditions: Journal of Steroid Biochemistry, 16:503-507 (1982); in vitro; cited from earlier work
# human erythrocytes = conditions: Arzneim-Forsch, 32(I):684-685 (1982); in vitro; cited from earlier work
# [1] = system: glucose transport in human erythrocytes; conditions: Arzneim-Forsch, 32(I):684-685 (1982); in vitro; cited from earlier work
# T1 sequence (P25103 whole entry): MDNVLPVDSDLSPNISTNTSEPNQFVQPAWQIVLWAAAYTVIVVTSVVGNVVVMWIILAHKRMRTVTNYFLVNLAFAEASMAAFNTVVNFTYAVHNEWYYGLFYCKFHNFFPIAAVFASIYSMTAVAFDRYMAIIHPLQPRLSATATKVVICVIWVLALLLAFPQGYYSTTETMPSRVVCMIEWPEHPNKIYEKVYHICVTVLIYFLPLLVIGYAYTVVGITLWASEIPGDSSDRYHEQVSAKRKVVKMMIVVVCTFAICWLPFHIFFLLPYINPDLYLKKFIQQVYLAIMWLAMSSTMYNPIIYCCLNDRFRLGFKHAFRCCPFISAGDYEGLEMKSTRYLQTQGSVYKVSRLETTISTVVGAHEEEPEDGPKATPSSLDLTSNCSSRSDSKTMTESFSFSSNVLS
IC50 (NK-1 receptor) [nM],IC50 (human NK-2 receptor) [nM],Structure (SMILES),other results
290,330,"O=C(CN1CCC(Cc2ccccc2)CC1)NC(Cc1c[nH]c2ccccc12)C(=O)NCc1ccccc1Cl (centres unmarked) [Example 1, N-(2-chlorobenzyl)-3-(1H-indol-3-yl)-2-[(4-benzylpiperidin-1-yl)acetyl]amino]propanamide hydrochloride salt]",
230,1500,O=C1CN(CC(=O)NC(Cc2c[nH]c3ccccc23)C(=O)NCc2ccccc2Cl)C(=O)CN1 (centres unmarked) [Example 2],
,1500,O=C(CN1CC(=O)N(Cc2ccccc2)CC1=O)NC(Cc1c[nH]c2ccccc12)C(=O)NCc1ccccc1 (centres unmarked) [Example 3],
,2100,O=C(CN1CC(=O)N(Cc2ccccc2)CC1=O)NC(Cc1c[nH]c2ccccc12)C(=O)Nc1ccccc1 (centres unmarked) [Example 4],
,740,O=C(CN1CC(=O)N(Cc2ccccc2)CC1=O)NC(Cc1c[nH]c2ccccc12)C(=O)NCCc1ccccc1 (centres unmarked) [Example 5],
41,82,O=C(CN1CC(=O)N(Cc2ccccc2)CC1=O)NC(Cc1c[nH]c2ccccc12)C(=O)NCc1ccccc1Cl (centres unmarked) [Example 6],
730,2200,O=C(CN1CCCCC1)NC(Cc1c[nH]c2ccccc12)C(=O)NCc1ccccc1Cl (centres unmarked) [Example 7],
78,3400,CN1CCN(CC(=O)NC(Cc2c[nH]c3ccccc23)C(=O)NCc2ccccc2Cl)CC1 (centres unmarked) [Example 8],
30,240,O=C(CN1CCN(c2ccccc2)CC1)NC(Cc1c[nH]c2ccccc12)C(=O)NCc1ccccc1Cl (centres unmarked) [Example 9],
140,570,O=C(CN1CCC(c2ccccc2)CC1)NC(Cc1c[nH]c2ccccc12)C(=O)NCc1ccccc1Cl (centres unmarked) [Example 10],
34,240,"O=C(CN1CCN(Cc2ccccc2)CC1)NC(Cc1c[nH]c2ccccc12)C(=O)NCc1ccccc1Cl (centres unmarked) [Example 13, N-(2-chlorobenzyl)-3-(1H-indol-3-yl)-2-[(4-benzylpiperazin-1-yl)acetyl]amino]propanamide dihydrochloride salt]",
67,650,COc1ccccc1CNC(=O)C(Cc1c[nH]c2ccccc12)NC(=O)CN1CCN(c2ccccc2)CC1 (centres unmarked) [Example 14],
180,,CN(Cc1ccccc1)C(=O)C(Cc1c[nH]c2ccccc12)NC(=O)CN1CCN(c2ccccc2)CC1 (centres unmarked) [Example 15],
140,430,O=C(CN1CCN(c2ccccc2)CC1)NC(Cc1c[nH]c2ccccc12)C(=O)NCc1ccccc1 (centres unmarked) [Example 16],
210,210,O=C(CN1CCN(c2ccccc2)CC1)NC(Cc1c[nH]c2ccccc12)C(=O)NCc1ccc(Cl)cc1 (centres unmarked) [Example 17],
95,3100,CN1CC(=O)N(CC(=O)NC(Cc2c[nH]c3ccccc23)C(=O)NCc2ccccc2Cl)CC1=O (centres unmarked) [Example 18],
,,NC(Cc1c[nH]c2ccccc12)C(=O)OCc1ccccc1 (centres unmarked) [benzyl 3-(3-indolyl)-2-aminopropionate],Inhibition of benzodiazepine receptor binding in vitro (benzodiazepine receptor): Inhibition; inhibition of estrogen binding to rat alpha-fetoprotein (rat alpha-fetoprotein): weak inhibition
,,CC(N)(C(=O)OCc1ccccc1)c1c[nH]c2ccccc12 (centres unmarked) [benzyl (2-(3-indolyl)-2-aminopropionate],antisickling activity (human erythrocytes): antisickling agent; inhibition of glucose transport in human erythrocytes [1]: inhibitor of glucose transport
